Data set [1] concerns the target T1, soluble guanylate cyclase (sGC) (Bos taurus, UniProt P16068+P19687).
T1 construct: The sGC employed had been isolated from bovine lung; from tissue; host or cells: bovine lung
T1 sequence (P19687 1-691): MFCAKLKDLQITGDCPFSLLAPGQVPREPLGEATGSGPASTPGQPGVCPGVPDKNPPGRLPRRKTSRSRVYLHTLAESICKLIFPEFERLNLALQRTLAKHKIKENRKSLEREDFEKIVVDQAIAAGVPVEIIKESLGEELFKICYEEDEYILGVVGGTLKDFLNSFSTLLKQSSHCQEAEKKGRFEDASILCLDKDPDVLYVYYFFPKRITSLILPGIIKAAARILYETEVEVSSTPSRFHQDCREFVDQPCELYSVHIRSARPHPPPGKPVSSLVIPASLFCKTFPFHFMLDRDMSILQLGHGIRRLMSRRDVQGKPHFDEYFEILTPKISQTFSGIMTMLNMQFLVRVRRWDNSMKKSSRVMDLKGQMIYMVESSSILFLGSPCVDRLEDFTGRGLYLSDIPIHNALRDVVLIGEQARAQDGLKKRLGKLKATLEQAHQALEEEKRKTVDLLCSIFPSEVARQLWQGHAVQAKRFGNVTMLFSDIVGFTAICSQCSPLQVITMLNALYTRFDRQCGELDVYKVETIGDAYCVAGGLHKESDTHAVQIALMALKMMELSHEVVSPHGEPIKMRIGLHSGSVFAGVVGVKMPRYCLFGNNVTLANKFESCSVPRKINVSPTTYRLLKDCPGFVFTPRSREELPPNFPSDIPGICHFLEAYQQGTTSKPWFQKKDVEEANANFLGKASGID
T1 sequence (P16068 1-619): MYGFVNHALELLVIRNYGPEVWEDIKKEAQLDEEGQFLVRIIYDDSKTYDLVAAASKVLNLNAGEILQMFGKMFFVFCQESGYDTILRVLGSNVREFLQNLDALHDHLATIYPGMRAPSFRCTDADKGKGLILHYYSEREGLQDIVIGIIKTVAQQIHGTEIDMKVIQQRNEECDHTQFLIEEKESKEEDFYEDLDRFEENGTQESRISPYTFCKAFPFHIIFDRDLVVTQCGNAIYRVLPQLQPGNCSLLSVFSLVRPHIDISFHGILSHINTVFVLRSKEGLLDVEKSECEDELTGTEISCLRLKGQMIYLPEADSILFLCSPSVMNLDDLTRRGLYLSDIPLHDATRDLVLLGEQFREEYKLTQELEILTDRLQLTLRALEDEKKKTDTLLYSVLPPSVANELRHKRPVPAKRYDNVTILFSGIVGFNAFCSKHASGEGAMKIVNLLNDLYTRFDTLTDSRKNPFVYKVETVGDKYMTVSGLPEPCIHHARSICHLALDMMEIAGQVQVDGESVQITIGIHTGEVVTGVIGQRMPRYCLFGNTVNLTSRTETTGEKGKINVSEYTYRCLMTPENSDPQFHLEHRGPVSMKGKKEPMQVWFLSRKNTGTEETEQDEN
The experiment in a line: Activation of the soluble guanylate cyclase (cGMP enzyme immunoassay). The class given is biochemical. The following applies: test substance 50 μM; sGC isolated from bovine lung; [cGMP] test substance/[cGMP] control (basal activity, solvent); 37° C., 15 to 20 minutes. Here is the method: Activation of the Soluble Guanylate Cyclase
The activation of the soluble guanylate cyclase (sGC), which catalyzes the conversion of guanosine triphosphate (GTP) into cyclic guanosine monophosphate (cGMP) and pyrophosphate, by the compounds according to the invention was quantified with the aid of an enzyme immunoassay (EIA) from Amersham. For this, the test substances were first incubated with sGC in microtiter plates and then the amount of resulting cGMP was determined. The sGC employed had been isolated from bovine lung (see Methods in Enzymology, Volume 195, p. 377). The test solutions (100 μl per well) contained 50 mM triethanolamine (TEA) buffer (pH 7.5), 3 mM MgCl2, 3 mM reduced glutathione (GSH), 0.1 mM GTP, 1 mM 3-isobutyl-1-methylxanthine (IBMX), suitably diluted enzyme solution and the test substance or, in the case of the control experiments, solvent. The test substances were dissolved in dimethyl sulfoxide (DMSO) and the solution was diluted with DMSO/water such that the final concentration of test substance in the test solution was 50 μM. The DMSO concentration in the test solution was 5% (v/v). The reaction was started by addition of the sGC. The reaction mix was incubated at 37° C. for 15 to 20 minutes and then stopped by ice-cooling and addition of the stop reagent (50 mM EDTA, pH 8.0). An aliquot of 50 μl was taken and employed for the determination of the cGMP content using the acetylation protocol of the Amersham cGMP EIA kit. The absorption of the samples was measured at 450 nm (reference wavelength 620 nm) in a microtiter plate reader. The cGMP concentration was determined by means of a calibration curve which was obtained under the same experimental conditions. The activation of the sGC by a test substance is indicated as n-fold stimulation of the basal enzyme activity which was found in the control experiments (with solvent instead of test substance calculated according to the formula
n-fold stimulation=[cGMP]test substance/[cGMP]control).

The structures appear in SMILES notation.

With `COc1cc2nc(-c3ccc(C)cc3)nc(NC3CCCC3)c2cc1OC` [Example 98, 2-(4-Methylphenyl)-4-cyclopentylamino-6,7-dimethoxyquinazoline], the melting point – broadly, the temperature, or range, at which the solid turns liquid – amounted to 101 °C. In addition, the “n-fold Stimulation” value in data set [1] came out at 8 n-fold.

On to `COc1cc2nc(-c3ccc(C)cc3)nc(NCc3cccnc3)c2cc1OC` [Example 38, 2-(4-Methylphenyl)-4-((3-pyridylmethyl)amino)-6,7-dimethoxyquinazoline], for which the melting point turned out to be 239 °C. In addition, in data set [1], the “n-fold Stimulation” value is 7 n-fold.

As to `COc1cc2c(NCCN(C(C)C)C(C)C)nc(-c3ccc(Cl)cc3)nc2c(OC)c1OC.Cl` [Example 11, 2-(4-Chlorophenyl)-4-(2-diisopropylaminoethylamino)-6,7,8-trimethoxyquinazoline Hydrochloride], the melting point was determined as 189 °C. Moreover, the “n-fold Stimulation” value in data set [1] turned out to be 6 n-fold.

`COc1cc2nc(-c3ccc(Cl)cc3)nc(NCC(N)=O)c2cc1OC` [Example 25, 2-(4-Chlorophenyl)-4-((aminocarbonylmethyl)amino)-6,7-dimethoxyquinazoline] showed a melting point of 291 °C. In data set [1], the “n-fold Stimulation” value is listed as 3 n-fold.

On to `COc1cc2nc(-c3ccc(Cl)cc3)nc(N3CCN(CCO)CC3)c2cc1OC` [Example 23, 2-(4-Chlorophenyl)-4-(4-(2-hydroxyethyl)piperazino)-6,7-dimethoxyquinazoline], for which the melting point was 163 °C. In addition, the “n-fold Stimulation” value in data set [1] came out at 4 n-fold.

Take `COc1cc2nc(-c3ccc(C)cc3)nc(N3CCN(c4ccccn4)CC3)c2cc1OC` [Example 79, 2-(4-Methylphenyl)-4-(4-(2-pyridyl)piperazino)-6,7-dimethoxyquinazoline]: the melting point came to 191 °C. In addition, the “n-fold Stimulation” value in data set [1] turned out to be 6 n-fold.

In turn, `COc1cc2nc(-c3ccc(C)cc3)nc(NCCO)c2cc1OC` [Example 37, 2-(4-Methylphenyl)-4-(2-hydroxyethylamino)-6,7-dimethoxyquinazoline] showed a melting point of 217 °C. Moreover, the “n-fold Stimulation” value in data set [1] was 4 n-fold.

Regarding `COc1cc2nc(-c3ccc(Cl)cc3)nc(N3CCN(CC(=O)NC(C)C)CC3)c2cc1OC` [Example 24, 2-(4-Chlorophenyl)-4-(4-(isopropylaminocarbonylmethyl)piperazino)-6,7-dimethoxyquinazoline], the melting point came out at 187 °C. Moreover, the “n-fold Stimulation” value in data set [1] was found to be 3 n-fold.

Turning to `COc1cc2c(N3CCN(CCO)CC3)nc(-c3ccc(Cl)cc3)nc2c(OC)c1OC` [Example 13, 2-(4-Chlorophenyl)-4-(4-(2-hydroxyethyl)piperazino)-6,7,8-trimethoxyquinazoline], the melting point is 175 °C. In addition, in data set [1], the “n-fold Stimulation” value is reported as 7 n-fold.

`COc1cc2c(N3CCC(C(N)=O)CC3)nc(-c3ccc(Cl)cc3)nc2c(OC)c1OC` [Example 67, 2-(4-Chlorophenyl)-4-(4-aminocarbonylpiperidino)-6,7,8-trimethoxyquinazoline] returned a melting point of 215 °C. For the same compound, in data set [1], the “n-fold Stimulation” value was determined as 7 n-fold.

For `COc1cc2c(N3CCN(CC(=O)N4CCOCC4)CC3)nc(-c3ccc(Cl)cc3)nc2c(OC)c1OC` [Example 12, 2-(4-Chlorophenyl)-4-(4-(morpholinocarbonylmethyl)piperazino)-6,7,8-trimethoxyquinazoline], the melting point was 177 °C. The “n-fold Stimulation” value in data set [1] worked out at 6 n-fold.

In turn, `COc1cc2c(NCCCN3CCOCC3)nc(-c3ccc(Cl)cc3)nc2c(OC)c1OC.Cl` [Example 14, 2-(4-Chlorophenyl)-4-(3-morpholinopropylamino)-6,7,8-trimethoxyquinazoline Hydrochloride] had a melting point of 190 °C. Moreover, the “n-fold Stimulation” value in data set [1] was 3 n-fold.

The compound `COc1cc2nc(-c3ccc(C(F)(F)F)cc3)nc(NCc3cccnc3)c2cc1OC` [Example 44, 2-(4-Trifluoromethylphenyl)-4-((3-pyridylmethyl)amino)-6,7-dimethoxyquinazoline] returned a melting point of 238 °C. Further, in data set [1], the “n-fold Stimulation” value was determined as 4 n-fold.

`COc1cc2nc(-c3ccc(Cl)cc3)nc(N[C@H]3CC[C@H](O)CC3)c2cc1OC` [Example 93, 2-(4-Chlorophenyl)-4-(trans-4-hydroxycyclohexylamino)-6,7-dimethoxyquinazoline] showed a melting point of 261 °C. Further, the “n-fold Stimulation” value in data set [1] is 14 n-fold.

For `COc1cc2nc(-c3ccc(Cl)cc3)nc(NCCO)c2cc1OC` [Example 20, 2-(4-Chlorophenyl)-4-(2-hydroxyethylamino)-6,7-dimethoxyquinazoline], the melting point is 236 °C. In data set [1], the “n-fold Stimulation” value came to 5 n-fold.
